Assay results: ChEMBL document CHEMBL5291721, “A preclinical secondary pharmacology resource illuminates target-adverse drug reaction associations of marketed drugs” (Nat Commun, 2023)

What was measured:
[1] = molecular target: T1, Alpha-2A adrenergic receptor (Homo sapiens, UniProt P08913)
T1 sequence (P08913 whole entry): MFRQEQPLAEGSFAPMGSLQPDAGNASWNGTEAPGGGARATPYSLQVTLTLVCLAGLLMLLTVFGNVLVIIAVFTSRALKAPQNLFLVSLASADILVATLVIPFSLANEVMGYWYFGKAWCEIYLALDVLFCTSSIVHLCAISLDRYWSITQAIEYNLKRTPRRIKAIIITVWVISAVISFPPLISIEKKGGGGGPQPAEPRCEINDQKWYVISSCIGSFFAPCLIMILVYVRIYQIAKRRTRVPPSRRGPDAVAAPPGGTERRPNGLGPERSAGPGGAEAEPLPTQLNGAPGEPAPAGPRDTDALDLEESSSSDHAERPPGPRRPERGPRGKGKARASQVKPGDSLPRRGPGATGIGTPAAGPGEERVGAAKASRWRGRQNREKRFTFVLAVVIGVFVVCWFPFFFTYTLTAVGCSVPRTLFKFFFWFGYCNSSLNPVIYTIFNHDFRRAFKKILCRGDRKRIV

[2] = molecular target: Histamine H3 receptor (Homo sapiens, UniProt Q9Y5N1)
[3] = molecular target: T2, Alpha-1A adrenergic receptor (Homo sapiens, UniProt P35348); format: functional, cell-based
T2 sequence (P35348 whole entry): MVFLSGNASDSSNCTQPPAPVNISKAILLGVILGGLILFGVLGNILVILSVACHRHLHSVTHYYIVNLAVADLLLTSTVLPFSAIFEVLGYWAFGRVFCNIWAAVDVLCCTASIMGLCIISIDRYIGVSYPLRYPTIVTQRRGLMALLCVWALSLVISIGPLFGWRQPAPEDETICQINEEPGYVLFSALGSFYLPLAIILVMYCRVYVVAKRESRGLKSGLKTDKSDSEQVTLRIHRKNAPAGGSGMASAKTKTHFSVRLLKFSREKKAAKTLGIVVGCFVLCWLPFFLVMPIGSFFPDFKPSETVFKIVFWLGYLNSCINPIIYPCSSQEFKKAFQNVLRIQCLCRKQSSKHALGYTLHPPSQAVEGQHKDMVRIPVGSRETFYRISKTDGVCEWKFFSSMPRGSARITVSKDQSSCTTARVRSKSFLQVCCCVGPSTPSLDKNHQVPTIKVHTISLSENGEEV

[4] = molecular target: T3, Prostaglandin G/H synthase 1 (Homo sapiens, UniProt P23219); format: functional
[5] = molecular target: Sodium-dependent serotonin transporter (Homo sapiens, UniProt P31645)
[6] = molecular target: D(1A) dopamine receptor (Homo sapiens, UniProt P21728)
[7] = molecular target: D(3) dopamine receptor (Homo sapiens, UniProt P35462)
[8] = molecular target: Prothrombin (Homo sapiens, UniProt P00734); format: functional
[9] = molecular target: Mu-type opioid receptor (Homo sapiens, UniProt P35372)
[10] = molecular target: T4, Thromboxane A2 receptor (Homo sapiens, UniProt P21731); format: functional, cell-based
T4 sequence (P21731 whole entry): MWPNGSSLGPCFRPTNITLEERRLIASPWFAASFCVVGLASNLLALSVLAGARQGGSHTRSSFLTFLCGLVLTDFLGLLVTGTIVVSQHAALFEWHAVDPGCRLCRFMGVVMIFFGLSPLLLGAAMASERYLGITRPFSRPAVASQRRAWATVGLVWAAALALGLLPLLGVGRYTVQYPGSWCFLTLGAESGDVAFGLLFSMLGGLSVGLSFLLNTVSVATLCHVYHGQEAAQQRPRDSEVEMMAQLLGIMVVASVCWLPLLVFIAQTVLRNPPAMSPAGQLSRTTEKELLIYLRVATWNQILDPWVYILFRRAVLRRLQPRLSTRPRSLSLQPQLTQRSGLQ

[11] = molecular target: T5, Muscarinic acetylcholine receptor M2 (Homo sapiens, UniProt P08172)
T5 sequence (P08172 whole entry): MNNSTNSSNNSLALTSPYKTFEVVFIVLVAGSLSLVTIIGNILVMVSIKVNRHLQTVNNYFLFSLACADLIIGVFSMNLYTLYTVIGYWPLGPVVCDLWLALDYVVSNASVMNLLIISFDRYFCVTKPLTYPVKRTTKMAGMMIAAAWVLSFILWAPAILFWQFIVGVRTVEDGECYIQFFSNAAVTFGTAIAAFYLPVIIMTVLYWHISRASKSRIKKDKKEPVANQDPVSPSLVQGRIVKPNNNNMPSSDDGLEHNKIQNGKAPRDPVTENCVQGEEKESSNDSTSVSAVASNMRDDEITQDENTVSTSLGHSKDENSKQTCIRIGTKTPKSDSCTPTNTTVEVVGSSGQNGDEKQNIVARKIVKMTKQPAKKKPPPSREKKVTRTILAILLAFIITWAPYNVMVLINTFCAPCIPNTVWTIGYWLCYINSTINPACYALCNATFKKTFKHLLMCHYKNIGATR

[12] = molecular target: 5-hydroxytryptamine receptor 2B (Homo sapiens, UniProt P41595); format: functional, cell-based
[13] = molecular target: T3, Prostaglandin G/H synthase 1; format: functional; remark: listed apart in the source
[14] = molecular target: T6, Adenosine receptor A3 (Homo sapiens, UniProt P0DMS8)
T6 sequence (P0DMS8 whole entry): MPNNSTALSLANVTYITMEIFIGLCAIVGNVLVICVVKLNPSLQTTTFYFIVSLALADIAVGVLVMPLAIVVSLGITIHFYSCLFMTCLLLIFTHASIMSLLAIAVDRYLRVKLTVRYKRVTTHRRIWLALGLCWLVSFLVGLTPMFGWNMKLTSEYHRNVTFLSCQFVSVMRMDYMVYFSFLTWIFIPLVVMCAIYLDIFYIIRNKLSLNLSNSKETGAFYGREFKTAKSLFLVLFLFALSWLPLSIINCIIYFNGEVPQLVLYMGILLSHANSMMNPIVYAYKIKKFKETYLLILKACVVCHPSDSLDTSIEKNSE

[15] = molecular target: Voltage-gated inwardly rectifying potassium channel KCNH2 (Homo sapiens, UniProt Q12809); format: functional; details: read-out: AC50
Note: assay procedure not described here.

D(3) dopamine receptor, sequence (P35462 whole entry): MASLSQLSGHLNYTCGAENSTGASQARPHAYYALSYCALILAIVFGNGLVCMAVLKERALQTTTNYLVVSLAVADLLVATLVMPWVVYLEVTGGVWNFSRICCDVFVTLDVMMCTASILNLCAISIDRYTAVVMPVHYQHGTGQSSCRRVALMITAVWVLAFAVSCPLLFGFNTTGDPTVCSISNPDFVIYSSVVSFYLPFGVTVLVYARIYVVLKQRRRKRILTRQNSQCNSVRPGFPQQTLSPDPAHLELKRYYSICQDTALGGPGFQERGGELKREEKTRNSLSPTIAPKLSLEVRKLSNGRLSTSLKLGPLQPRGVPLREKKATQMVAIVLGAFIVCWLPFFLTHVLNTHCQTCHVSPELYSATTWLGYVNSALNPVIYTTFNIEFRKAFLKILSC
T3 sequence (P23219 whole entry): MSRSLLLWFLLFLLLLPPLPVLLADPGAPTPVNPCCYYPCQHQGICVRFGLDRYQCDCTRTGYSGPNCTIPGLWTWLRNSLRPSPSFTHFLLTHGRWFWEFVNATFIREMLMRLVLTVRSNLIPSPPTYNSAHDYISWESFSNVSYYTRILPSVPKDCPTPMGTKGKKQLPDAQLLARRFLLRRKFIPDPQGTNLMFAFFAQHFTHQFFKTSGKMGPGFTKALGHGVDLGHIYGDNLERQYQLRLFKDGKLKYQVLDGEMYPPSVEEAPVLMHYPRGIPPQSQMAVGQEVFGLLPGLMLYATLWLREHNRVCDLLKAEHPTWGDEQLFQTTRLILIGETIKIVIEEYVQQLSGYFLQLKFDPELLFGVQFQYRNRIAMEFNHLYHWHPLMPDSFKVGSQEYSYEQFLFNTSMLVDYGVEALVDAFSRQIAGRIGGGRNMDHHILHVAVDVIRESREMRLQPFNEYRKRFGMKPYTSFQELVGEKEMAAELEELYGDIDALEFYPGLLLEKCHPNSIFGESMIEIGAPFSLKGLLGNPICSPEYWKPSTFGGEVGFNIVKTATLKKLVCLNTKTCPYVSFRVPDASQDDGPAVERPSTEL
Voltage-gated inwardly rectifying potassium channel KCNH2, sequence (Q12809 whole entry): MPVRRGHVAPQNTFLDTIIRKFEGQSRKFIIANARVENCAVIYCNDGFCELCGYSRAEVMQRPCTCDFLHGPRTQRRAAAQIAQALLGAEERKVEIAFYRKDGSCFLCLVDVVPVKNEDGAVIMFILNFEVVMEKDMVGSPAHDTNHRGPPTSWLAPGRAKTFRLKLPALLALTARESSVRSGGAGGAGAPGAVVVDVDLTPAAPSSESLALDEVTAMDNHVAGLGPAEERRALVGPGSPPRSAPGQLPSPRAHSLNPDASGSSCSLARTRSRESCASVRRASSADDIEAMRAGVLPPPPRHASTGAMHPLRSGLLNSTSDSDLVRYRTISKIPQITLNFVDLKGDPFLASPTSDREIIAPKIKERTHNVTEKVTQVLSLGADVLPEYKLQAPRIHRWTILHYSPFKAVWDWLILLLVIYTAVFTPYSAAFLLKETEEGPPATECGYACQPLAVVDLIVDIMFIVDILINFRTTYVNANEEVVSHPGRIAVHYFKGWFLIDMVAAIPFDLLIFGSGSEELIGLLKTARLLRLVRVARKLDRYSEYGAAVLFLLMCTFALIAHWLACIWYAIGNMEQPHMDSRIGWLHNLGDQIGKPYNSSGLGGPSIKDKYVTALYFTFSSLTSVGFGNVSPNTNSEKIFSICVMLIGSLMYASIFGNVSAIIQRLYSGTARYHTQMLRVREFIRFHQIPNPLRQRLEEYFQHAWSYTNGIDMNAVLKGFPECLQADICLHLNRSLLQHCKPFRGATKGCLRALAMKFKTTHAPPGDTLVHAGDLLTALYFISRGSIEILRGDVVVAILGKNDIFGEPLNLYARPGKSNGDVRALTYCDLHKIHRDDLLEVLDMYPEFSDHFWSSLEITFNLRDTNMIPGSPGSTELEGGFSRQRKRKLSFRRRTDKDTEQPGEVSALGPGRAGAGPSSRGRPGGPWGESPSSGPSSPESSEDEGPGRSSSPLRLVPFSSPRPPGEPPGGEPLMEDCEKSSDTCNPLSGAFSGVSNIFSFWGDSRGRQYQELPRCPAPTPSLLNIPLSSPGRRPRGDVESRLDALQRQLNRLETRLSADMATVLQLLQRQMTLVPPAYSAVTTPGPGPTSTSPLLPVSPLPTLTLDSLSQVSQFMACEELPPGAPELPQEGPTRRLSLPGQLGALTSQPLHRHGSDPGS
Mu-type opioid receptor, sequence (P35372 whole entry): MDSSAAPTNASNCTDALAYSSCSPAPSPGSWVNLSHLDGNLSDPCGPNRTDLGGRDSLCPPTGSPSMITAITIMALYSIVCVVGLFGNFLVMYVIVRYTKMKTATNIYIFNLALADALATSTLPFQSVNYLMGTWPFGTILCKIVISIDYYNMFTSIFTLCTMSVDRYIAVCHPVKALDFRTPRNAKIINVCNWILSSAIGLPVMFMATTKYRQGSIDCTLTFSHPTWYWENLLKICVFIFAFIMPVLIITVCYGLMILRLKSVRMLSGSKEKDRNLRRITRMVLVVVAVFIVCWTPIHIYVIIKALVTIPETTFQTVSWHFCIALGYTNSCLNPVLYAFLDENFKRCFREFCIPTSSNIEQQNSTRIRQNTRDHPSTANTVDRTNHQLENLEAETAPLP
Histamine H3 receptor, sequence (Q9Y5N1 whole entry): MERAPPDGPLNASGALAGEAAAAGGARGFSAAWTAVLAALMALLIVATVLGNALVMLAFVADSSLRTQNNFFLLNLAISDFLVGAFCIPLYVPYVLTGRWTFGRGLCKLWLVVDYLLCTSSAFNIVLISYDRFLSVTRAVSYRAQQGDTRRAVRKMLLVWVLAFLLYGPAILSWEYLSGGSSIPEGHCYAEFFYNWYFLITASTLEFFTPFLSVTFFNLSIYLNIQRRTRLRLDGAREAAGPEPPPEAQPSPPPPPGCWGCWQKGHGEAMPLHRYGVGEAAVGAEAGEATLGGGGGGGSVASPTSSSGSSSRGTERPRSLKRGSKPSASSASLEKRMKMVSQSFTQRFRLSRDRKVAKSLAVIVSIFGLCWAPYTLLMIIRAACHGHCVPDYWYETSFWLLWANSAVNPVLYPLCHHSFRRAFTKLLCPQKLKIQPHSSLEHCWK
5-hydroxytryptamine receptor 2B, sequence (P41595 whole entry): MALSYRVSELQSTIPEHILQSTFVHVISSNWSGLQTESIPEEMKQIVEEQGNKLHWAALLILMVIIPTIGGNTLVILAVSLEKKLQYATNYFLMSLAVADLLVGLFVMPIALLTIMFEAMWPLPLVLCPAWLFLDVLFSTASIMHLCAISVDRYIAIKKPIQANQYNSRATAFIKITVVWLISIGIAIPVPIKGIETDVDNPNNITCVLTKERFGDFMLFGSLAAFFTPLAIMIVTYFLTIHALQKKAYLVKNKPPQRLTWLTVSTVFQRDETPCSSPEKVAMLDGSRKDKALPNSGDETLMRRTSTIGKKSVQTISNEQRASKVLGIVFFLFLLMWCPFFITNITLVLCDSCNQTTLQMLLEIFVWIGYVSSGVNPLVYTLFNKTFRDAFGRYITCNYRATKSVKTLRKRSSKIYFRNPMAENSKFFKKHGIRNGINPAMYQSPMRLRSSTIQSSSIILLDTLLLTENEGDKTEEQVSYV
D(1A) dopamine receptor, sequence (P21728 whole entry): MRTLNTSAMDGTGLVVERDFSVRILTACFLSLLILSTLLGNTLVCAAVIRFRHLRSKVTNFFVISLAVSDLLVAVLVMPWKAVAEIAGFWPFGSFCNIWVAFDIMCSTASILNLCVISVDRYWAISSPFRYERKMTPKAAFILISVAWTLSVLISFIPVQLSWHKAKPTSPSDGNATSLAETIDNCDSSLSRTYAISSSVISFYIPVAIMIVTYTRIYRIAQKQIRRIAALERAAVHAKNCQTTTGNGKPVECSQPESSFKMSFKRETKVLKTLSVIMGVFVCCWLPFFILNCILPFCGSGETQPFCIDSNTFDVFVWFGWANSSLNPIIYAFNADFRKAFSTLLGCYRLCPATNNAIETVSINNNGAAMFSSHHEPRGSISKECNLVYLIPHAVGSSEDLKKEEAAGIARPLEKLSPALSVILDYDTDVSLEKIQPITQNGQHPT
Sodium-dependent serotonin transporter, sequence (P31645 whole entry): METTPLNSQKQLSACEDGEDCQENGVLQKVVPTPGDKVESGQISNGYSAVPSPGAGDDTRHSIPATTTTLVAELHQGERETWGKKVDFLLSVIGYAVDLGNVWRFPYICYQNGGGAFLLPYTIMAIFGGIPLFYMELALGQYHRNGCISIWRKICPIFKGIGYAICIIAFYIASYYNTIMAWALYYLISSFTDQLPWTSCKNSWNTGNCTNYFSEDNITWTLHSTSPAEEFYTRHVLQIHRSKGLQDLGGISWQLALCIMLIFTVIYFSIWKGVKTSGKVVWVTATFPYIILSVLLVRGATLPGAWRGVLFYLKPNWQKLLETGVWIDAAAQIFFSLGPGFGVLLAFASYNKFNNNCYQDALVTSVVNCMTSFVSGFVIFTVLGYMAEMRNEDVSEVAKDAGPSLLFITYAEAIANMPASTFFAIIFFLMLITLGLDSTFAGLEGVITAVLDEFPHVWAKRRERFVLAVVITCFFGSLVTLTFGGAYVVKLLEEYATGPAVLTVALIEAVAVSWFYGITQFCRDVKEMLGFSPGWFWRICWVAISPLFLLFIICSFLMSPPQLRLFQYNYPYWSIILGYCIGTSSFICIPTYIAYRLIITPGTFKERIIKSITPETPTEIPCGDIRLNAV

| Compound | AC50 [1] | AC50 [2] | AC50 [3] | AC50 [4] | AC50 [5] | AC50 [6] | AC50 [7] | AC50 [8] | AC50 [9] | AC50 [10] | AC50 [11] | AC50 [12] | AC50 [13] | AC50 [14] | AC50 [15] |
| --- | --- | --- | --- | --- | --- | --- | --- | --- | --- | --- | --- | --- | --- | --- | --- |
| CCS(=O)(=O)N1CC(CC#N)(n2cc(-c3ncnc4[nH]ccc34)cn2)C1 [BARICITINIB] | > 30 µM | > 30 µM | > 10 µM | > 30 µM | > 30 µM | > 30 µM | > 30 µM | > 30 µM | > 30 µM | > 10 µM | > 30 µM | > 30 µM | > 30 µM |  |  |
| NCc1ccccc1CC(=O)N[C@@H]1C(=O)N2C(C(=O)O)=C(CSc3nnnn3CC(=O)O)CS[C@H]12 [CEFORANIDE] | > 30 µM | > 10 µM | > 30 µM | > 30 µM | > 30 µM | > 30 µM | > 30 µM | > 30 µM | > 30 µM | > 30 µM | > 30 µM | > 30 µM | > 30 µM |  |  |
| NS(=O)(=O)c1cc2c(cc1Cl)NC(C1CC3C=CC1C3)NS2(=O)=O (stereo not drawn) [CYCLOTHIAZIDE] | > 30 µM | > 30 µM | > 30 µM | > 30 µM | > 30 µM | > 30 µM |  | > 30 µM | > 30 µM | > 30 µM | > 30 µM | > 30 µM | > 30 µM | > 30 µM | > 30 µM |
| C[C@@H]1C[C@H]2[C@@H]3C[C@H](F)C4=CC(=O)C(Cl)=C[C@]4(C)[C@@]3(F)[C@@H](O)C[C@]2(C)[C@@]1(O)C(=O)CO [HALOMETASONE] | > 30 µM | > 30 µM | 23.3 µM | > 30 µM | > 30 µM | > 30 µM |  | > 30 µM | > 30 µM | 18.6 µM | > 30 µM | > 30 µM | > 30 µM | > 30 µM | > 30 µM |
| CC(C)Cc1ccc(C(C)C(=O)NO)cc1 (stereo not drawn) [IBUPROXAM] | > 30 µM | > 30 µM | > 30 µM |  | > 30 µM | > 30 µM | > 30 µM | > 30 µM | > 30 µM | > 30 µM | > 30 µM | > 30 µM | > 30 µM | > 30 µM | > 30 µM |
| CCN(CC)CCNc1ccc(C)c2sc3ccccc3c(=O)c12 [LUCANTHONE] | 5.65 µM | 10.5 µM |  | > 30 µM | 6.25 µM | 6.04 µM | 0.91 µM | > 30 µM | 11.8 µM | 13.4 µM | 2.36 µM | > 30 µM | > 30 µM | 12.4 µM | 1.3 µM |
| CCOC(=O)CC(SP(=S)(OC)OC)C(=O)OCC (stereo not drawn) [MALATHION] | > 30 µM | > 30 µM | > 30 µM | > 30 µM | > 30 µM | > 30 µM | > 30 µM | > 30 µM | > 30 µM | > 30 µM | > 30 µM | > 30 µM | > 30 µM |  | > 30 µM |
| CC(=O)OC(C)C[N+](C)(C)C (stereo not drawn) [METHACHOLINE] | > 30 µM | > 30 µM | > 30 µM | > 30 µM | > 30 µM | > 30 µM | > 30 µM | > 30 µM | > 30 µM |  | 2.22 µM | > 30 µM | > 30 µM | > 30 µM | > 30 µM |
| NC(=O)c1cccc2cn(-c3ccc([C@@H]4CCCNC4)cc3)nc12 [NIRAPARIB] | > 30 µM | 26 µM | > 30 µM | > 30 µM | 1.17 µM | > 30 µM | > 30 µM | > 30 µM | > 30 µM | > 30 µM | 14.4 µM | > 30 µM | > 30 µM |  | > 30 µM |
| COc1ccc2c(c1)OC(C)(C)C(c1ccccc1)C2c1ccc(OCCN2CCCC2)cc1 (stereo not drawn) [ORMELOXIFENE] | 10.6 µM | 0.785 µM |  | 4.3 µM | 13.2 µM | 6.98 µM | 0.205 µM | > 30 µM | 11.2 µM | 12.2 µM | 9.13 µM | > 30 µM | 3.31 µM | 3.66 µM | 2.7 µM |
| O=C(O)CCn1c2c(c3ccccc31)C[C@H](NS(=O)(=O)c1ccc(F)cc1)CC2 [RAMATROBAN] | > 30 µM | > 30 µM | > 30 µM | > 30 µM | > 30 µM | > 30 µM | > 30 µM | > 30 µM | > 30 µM | 0.04 µM | > 30 µM | > 30 µM | > 30 µM |  | > 30 µM |
| CCO[C@@H](Cc1ccc(OCCn2c(C)ccc2-c2ccc(SC)cc2)cc1)C(=O)O [SAROGLITAZAR] | > 30 µM | > 30 µM |  | > 30 µM | > 30 µM | > 30 µM | 22.2 µM | > 30 µM | > 30 µM |  | > 30 µM | > 30 µM | 9.49 µM | 14.9 µM | > 30 µM |
| CCC1C(C)=NN=C(c2ccc(OC)c(OC)c2)c2cc(OC)c(OC)cc21 (stereo not drawn) [TOFISOPAM] | > 30 µM | > 30 µM | > 30 µM | > 30 µM | > 30 µM | > 30 µM |  | > 30 µM | > 30 µM | > 30 µM | > 30 µM | > 30 µM | > 30 µM | > 30 µM | > 30 µM |
| COc1cc(NCc2ccc3nc(N)nc(N)c3c2C)cc(OC)c1OC [TRIMETREXATE] | > 30 µM | > 30 µM | > 30 µM | 2.4 µM | > 30 µM | 1.94 µM | 2.67 µM | > 30 µM | 1.2 µM | > 30 µM | 3.6 µM | > 30 µM | 28.1 µM |  | 2.16 µM |
